Measurements published in article PMC4860574, “Bafetinib (INNO-406) reverses multidrug resistance by inhibiting the efflux function of ABCB1 and ABCG2 transporters” (Scientific Reports, 2016).

Legend:
[1] = molecular target: T1, ABCG2 (Homo sapiens, UniProt Q9UNQ0); test: inhibition of vanadate-sensitive ATPase activity in ABCG2 membranes; type: biochemical; conditions: read-out: concentration required to obtain 50% of maximal inhibition
T1 construct: cell assays in NCI-H460/MX20 and HEK/ABCG2-R482
T1 sequence (Q9UNQ0 1-655): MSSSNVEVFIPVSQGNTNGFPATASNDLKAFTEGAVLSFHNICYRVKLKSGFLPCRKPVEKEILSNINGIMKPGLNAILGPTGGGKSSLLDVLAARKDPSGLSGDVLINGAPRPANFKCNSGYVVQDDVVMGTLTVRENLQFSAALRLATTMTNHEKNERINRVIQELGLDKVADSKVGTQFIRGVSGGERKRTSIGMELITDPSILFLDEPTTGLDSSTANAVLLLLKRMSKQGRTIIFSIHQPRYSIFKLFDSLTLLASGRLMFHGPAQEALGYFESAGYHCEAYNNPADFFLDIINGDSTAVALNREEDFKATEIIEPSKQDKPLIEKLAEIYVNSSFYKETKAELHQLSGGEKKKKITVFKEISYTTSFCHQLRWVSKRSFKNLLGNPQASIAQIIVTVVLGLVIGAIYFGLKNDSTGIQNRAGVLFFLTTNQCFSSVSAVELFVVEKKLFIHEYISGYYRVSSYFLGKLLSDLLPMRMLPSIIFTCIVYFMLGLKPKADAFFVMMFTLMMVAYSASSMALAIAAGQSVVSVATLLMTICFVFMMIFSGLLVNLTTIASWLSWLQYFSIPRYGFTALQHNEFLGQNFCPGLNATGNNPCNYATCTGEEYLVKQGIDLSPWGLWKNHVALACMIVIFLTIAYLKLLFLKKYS
Source text: inhibition of vanadate-sensitive ATPase activity in ABCG2 membranes on ABCG2 | bafetinib inhibited the ATPase activity of ABCG2 in a concentration-dependent manner

[2] = molecular target: T2, ABCB1 (Homo sapiens, UniProt P08183); test: stimulation of vanadate-sensitive ATPase activity in ABCB1 membranes; type: biochemical; conditions: read-out: concentration required to obtain 50% of maximal stimulation
T2 construct: full length, wild type; cell assays in SW620/Ad300 and HEK/ABCB1
T2 sequence (P08183 whole entry): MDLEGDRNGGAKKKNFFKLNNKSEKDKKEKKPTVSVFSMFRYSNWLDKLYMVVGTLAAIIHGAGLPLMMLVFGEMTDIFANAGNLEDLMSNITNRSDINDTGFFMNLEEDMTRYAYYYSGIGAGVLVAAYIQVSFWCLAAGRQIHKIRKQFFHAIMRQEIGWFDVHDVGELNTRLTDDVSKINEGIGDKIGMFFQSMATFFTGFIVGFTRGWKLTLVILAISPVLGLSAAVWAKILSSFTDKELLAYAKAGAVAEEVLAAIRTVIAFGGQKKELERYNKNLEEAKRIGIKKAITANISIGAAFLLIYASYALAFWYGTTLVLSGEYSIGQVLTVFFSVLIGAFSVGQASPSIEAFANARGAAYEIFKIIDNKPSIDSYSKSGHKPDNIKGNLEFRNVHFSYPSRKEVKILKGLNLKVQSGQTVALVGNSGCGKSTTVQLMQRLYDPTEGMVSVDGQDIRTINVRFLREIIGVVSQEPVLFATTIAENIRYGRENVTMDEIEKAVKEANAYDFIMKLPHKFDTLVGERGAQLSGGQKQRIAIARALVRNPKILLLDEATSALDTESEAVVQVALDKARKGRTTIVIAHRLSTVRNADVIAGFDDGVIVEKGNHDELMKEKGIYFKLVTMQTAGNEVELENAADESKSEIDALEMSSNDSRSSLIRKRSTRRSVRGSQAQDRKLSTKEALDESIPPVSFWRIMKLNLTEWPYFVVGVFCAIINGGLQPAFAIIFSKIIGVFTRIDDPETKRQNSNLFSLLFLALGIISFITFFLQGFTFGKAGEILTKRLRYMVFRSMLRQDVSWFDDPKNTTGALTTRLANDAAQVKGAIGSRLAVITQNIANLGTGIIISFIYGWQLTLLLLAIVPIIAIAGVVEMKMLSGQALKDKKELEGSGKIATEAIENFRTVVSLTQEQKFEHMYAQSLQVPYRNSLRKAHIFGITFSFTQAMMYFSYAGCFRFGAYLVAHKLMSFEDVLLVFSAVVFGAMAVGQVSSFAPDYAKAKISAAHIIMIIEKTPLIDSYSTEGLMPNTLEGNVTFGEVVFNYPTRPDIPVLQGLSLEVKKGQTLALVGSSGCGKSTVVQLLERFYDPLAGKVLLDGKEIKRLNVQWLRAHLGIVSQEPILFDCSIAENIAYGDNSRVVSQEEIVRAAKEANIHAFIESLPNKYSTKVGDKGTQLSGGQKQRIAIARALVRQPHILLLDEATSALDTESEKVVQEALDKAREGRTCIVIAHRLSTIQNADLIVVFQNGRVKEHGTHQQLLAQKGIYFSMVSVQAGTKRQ

## Cc1ccc(NC(=O)c2ccc(CN3CC[C@H](N(C)C)C3)c(C(F)(F)F)c2)cc1Nc1nccc(-c2cncnc2)n1 [bafetinib]
[1]
  IC50: 2970 nM
[2]
  EC50: 640 nM
